# Several values for one entry are separate records, joined by “and”; a condition that tells them apart may be missing. Equal entries are not always repeated. Entries after “also recorded” stand apart in the source; their conditions may differ. Where two headings read alike, the source gives them in different places.
# Assays:
# Type in all cases: in vivo, human
# [1] = Plasma pharmacokinetics of pamiparib, single dose and steady state, non-compartmental; details: for CL/F / Cmax / AUC(0-t) / AUC(0-inf): geometric mean (geometric CV%); for Cmax / AUC(0-t) / half-life / Tmax / AUC(0-inf): human, plasma; for half-life: geometric mean (range)
# Method: (§1) Secondary objectives were assessment of PK parameters and antitumor activity. Blood samples for the PK analysis were collected at Cycle 1 on Days 1, 2, and 3. Pharmacokinetic sampling was performed at Cycle 1 on Day 1 (predose and at 0.5, 1, 2, 4, 6, 9, and 12 hours postdose), Day 2, Day 3, and Day 10 (predose and at 0.5, 1, 2, 4, 6, 9, and 12 hours postdose); then at Cycles 2 and 3 on Day 1 (predose and at 2 hours postdose). […] Tumor assessments were performed by the investigators at screening, every 6 weeks after the first dose of pamiparib in the 1st year, and every 12 weeks thereafter until progression, per RECIST v1.1. Patients completed the study at the time of their safety follow‐up visit; therefore, radiological assessment of disease progression was not performed after the safety follow‐up visit. Approximately 14 to 18 evaluable patients were expected to enroll in the phase 1 part of the study. The safety population included all patients who received ≥1 dose of pamiparib. The PK population included all patients for whom valid pamiparib PK parameters could be estimated. Antitumor activity per RECIST v1.1 was assessed in all evaluable patients. […] The population evaluable for CA‐125 response included patients in the safety population with baseline CA‐125 ≥2 x upper limit of normal. Descriptive statistics were used to summarize all study data. Continuous variables included the number of non‐missing observations, mean, standard deviation, median, minimum, and maximum. Categorical variables were summarized by their frequency and percentage. Progression‐free survival was estimated using the Kaplan–Meier method and the corresponding 95% confidence interval (CI) was constructed using Greenwood's formula. Standard PK parameters (i.e., area under the plasma concentration‐time curve [AUC] from time of drug administration; maximum plasma concentration [Cmax]; time to Cmax; elimination half‐life [t1/2]; apparent clearance; and apparent volume of distribution during terminal phase) were estimated and derived using standard non‐compartmental methods.
# [2] = tested on: advanced HGOC or TNBC; experiment: Progression-free survival, total safety population; details: Total (N=15)
# Method: Secondary objectives were assessment of PK parameters and antitumor activity. Blood samples for the PK analysis were collected at Cycle 1 on Days 1, 2, and 3. Pharmacokinetic sampling was performed at Cycle 1 on Day 1 (predose and at 0.5, 1, 2, 4, 6, 9, and 12 hours postdose), Day 2, Day 3, and Day 10 (predose and at 0.5, 1, 2, 4, 6, 9, and 12 hours postdose); then at Cycles 2 and 3 on Day 1 (predose and at 2 hours postdose). […] Tumor assessments were performed by the investigators at screening, every 6 weeks after the first dose of pamiparib in the 1st year, and every 12 weeks thereafter until progression, per RECIST v1.1. Patients completed the study at the time of their safety follow‐up visit; therefore, radiological assessment of disease progression was not performed after the safety follow‐up visit. Descriptive statistics were used to summarize all study data. Continuous variables included the number of non‐missing observations, mean, standard deviation, median, minimum, and maximum. Categorical variables were summarized by their frequency and percentage. Progression‐free survival was estimated using the Kaplan–Meier method and the corresponding 95% confidence interval (CI) was constructed using Greenwood's formula. Standard PK parameters (i.e., area under the plasma concentration‐time curve [AUC] from time of drug administration; maximum plasma concentration [Cmax]; time to Cmax; elimination half‐life [t1/2]; apparent clearance; and apparent volume of distribution during terminal phase) were estimated and derived using standard non‐compartmental methods.
# [3] = tested on: non-mucinous high-grade ovarian cancer (HGOC); experiment: Antitumor activity per RECIST v1.1 (best overall response, ORR, CBR, PFS) in patients with HGOC
# Method: as §1
# [4] = tested on: high-grade ovarian cancer (HGOC); experiment: CA-125 response per Gynecologic Cancer Intergroup in patients with HGOC
# Method: Among eligible patients with HGOC, carcinoma antigen 125 (CA‐125) response rate per Gynecologic Cancer Intergroup was also assessed. Patients with HGOC had CA‐125 tested in a local laboratory at baseline, every 6 weeks in the 1st year, and then, every 12 weeks thereafter. CA‐125 responses must have been confirmed and maintained for at least 28 days. Germline and tBRCA1/2 mutations were analyzed as predictive biomarkers of antitumor activity and resistance to pamiparib. BRCA mutations were assessed using next‐generation sequencing, performed by BGI Genomics Co., Ltd, using the germline (gBRCA) or somatic (tBRCA) Hereditary Breast and Ovarian Cancer Test. Approximately 14 to 18 evaluable patients were expected to enroll in the phase 1 part of the study. The safety population included all patients who received ≥1 dose of pamiparib. The PK population included all patients for whom valid pamiparib PK parameters could be estimated. Antitumor activity per RECIST v1.1 was assessed in all evaluable patients. […] The population evaluable for CA‐125 response included patients in the safety population with baseline CA‐125 ≥2 x upper limit of normal.
# [5] = HGOC (n = 8), RECIST efficacy-evaluable
# [6] = HGOC (n = 8), RECIST efficacy-evaluable, 20-60 mg BID
smiles,measurement,setting,value
"C[C@]12CCCN1CC1=NNC(=O)c3cc(F)cc4[nH]c2c1c34 [pamiparib, Pamiparib]","Accumulation ratio, AUC0-12","[1]; 20 mg BID, n 4",2.05
same,"Accumulation ratio, Cmax","[1]; 20 mg BID, n 4",1.78
same,"Accumulation ratio, AUC0-12","[1]; 40 mg BID, n 4",3.95
same,"Accumulation ratio, Cmax","[1]; 40 mg BID, n 4",3.19
same,"Accumulation ratio, AUC0-12","[1]; 60 mg BID, n 5",3.4 and 3.36
same,"Accumulation ratio, Cmax","[1]; 60 mg BID, n 5",2.6 and 2.62
same,CL/F,"[1]; Single dose, 20 mg BID cohort, N 4",1.95 (44) L/hr
same,CL/F,"[1]; Single dose, 40 mg BID cohort, N 4",2.07 (61) L/hr
same,CL/F,"[1]; Single dose, 60 mg BID cohort, N 7",2.19 (79) L/hr
same,Dose proportionality of plasma exposure (AUC and Cmax),"[1]; between 20 mg and 60 mg BID, after a single dose",increased near proportionally; also recorded: near dose‐proportional
same,Cmax,"[1]; oral, 20 mg, Single dose, 20 mg BID cohort, N 4, plasma",718 ng/mL
same,AUC(0-t),"[1]; oral, 20 mg, Single dose, 20 mg BID cohort, N 4, read-out: AUC0-9",4130 ng·h/mL
same,AUC(0-t),"[1]; oral, 20 mg, Single dose, 20 mg BID cohort, N 4, read-out: AUC0-12",5030 ng·h/mL
same,half-life,"[1]; oral, 20 mg, Single dose, 20 mg BID cohort, N 4",12.1 h
same,Tmax,"[1]; oral, 20 mg, Single dose, 20 mg BID cohort, N 4, median (range), read-out: Tmax",1.01 h
same,Cmax,"[1]; oral, 20 mg, Steady state (Cycle 1 Day 10), 20 mg BID, N 4",1280 ng/mL
same,AUC(0-t),"[1]; oral, 20 mg, Steady state (Cycle 1 Day 10), 20 mg BID, N 4, read-out: AUC0-9",8360 ng·h/mL
same,AUC(0-t),"[1]; oral, 20 mg, Steady state (Cycle 1 Day 10), 20 mg BID, N 4, read-out: AUC0-12",10300 ng·h/mL
same,Tmax,"[1]; oral, 20 mg, Steady state (Cycle 1 Day 10), 20 mg BID, N 4, median (range), read-out: Tmax",1.04 h
same,Cmax,"[1]; oral, 40 mg, Single dose, 40 mg BID cohort, N 4, plasma",1630 ng/mL
same,AUC(0-t),"[1]; oral, 40 mg, Single dose, 40 mg BID cohort, N 4, read-out: AUC0-9",8560 ng·h/mL
same,AUC(0-t),"[1]; oral, 40 mg, Single dose, 40 mg BID cohort, N 4, read-out: AUC0-12",10400 ng·h/mL
same,half-life,"[1]; oral, 40 mg, Single dose, 40 mg BID cohort, N 4",11.8 h
same,Tmax,"[1]; oral, 40 mg, Single dose, 40 mg BID cohort, N 4, median (range), read-out: Tmax",0.98 h
same,Cmax,"[1]; oral, 40 mg, Steady state (Cycle 1 Day 10), 40 mg BID, N 4",5210 ng/mL
same,AUC(0-t),"[1]; oral, 40 mg, Steady state (Cycle 1 Day 10), 40 mg BID, N 4, read-out: AUC0-9",32500 ng·h/mL
same,AUC(0-t),"[1]; oral, 40 mg, Steady state (Cycle 1 Day 10), 40 mg BID, N 4, read-out: AUC0-12",40900 ng·h/mL
same,Tmax,"[1]; oral, 40 mg, Steady state (Cycle 1 Day 10), 40 mg BID, N 4, median (range), read-out: Tmax",1.1 h
same,Cmax,"[1]; oral, 60 mg, Single dose, 60 mg BID cohort, N 7, plasma",2300 ng/mL
same,AUC(0-t),"[1]; oral, 60 mg, Single dose, 60 mg BID cohort, N 7, read-out: AUC0-9",11900 ng·h/mL
same,AUC(0-t),"[1]; oral, 60 mg, Single dose, 60 mg BID cohort, N 7, read-out: AUC0-12",14800 ng·h/mL
same,half-life,"[1]; oral, 60 mg, Single dose, 60 mg BID cohort, N 7",~14 h
same,Tmax,"[1]; oral, 60 mg, Single dose, 60 mg BID cohort, N 7, median (range), read-out: Tmax",1.13 h
same,Cmax,"[1]; oral, 60 mg, Steady state (Cycle 1 Day 10), 60 mg BID, N 5",5860 ng/mL
same,AUC(0-t),"[1]; oral, 60 mg, Steady state (Cycle 1 Day 10), 60 mg BID, N 5, read-out: AUC0-9",38100 ng·h/mL
same,AUC(0-t),"[1]; oral, 60 mg, Steady state (Cycle 1 Day 10), 60 mg BID, N 5, read-out: AUC0-12",47100 ng·h/mL
same,Tmax,"[1]; oral, 60 mg, Steady state (Cycle 1 Day 10), 60 mg BID, N 5, median (range), read-out: Tmax",1.13 h
same,AUC(0-inf),"[1]; oral, Single dose, 20 mg BID cohort, N 4",10200 ng·h/mL
same,AUC(0-inf),"[1]; oral, Single dose, 40 mg BID cohort, N 4",19300 ng·h/mL
same,AUC(0-inf),"[1]; oral, Single dose, 60 mg BID cohort, N 7",27500 ng·h/mL
same,Tmax,"[1]; po, 60 mg, oral administration, RP2D of 60 mg BID, read-out: median Tmax",~1 h
same,Plasma exposure after a single dose compared with FIH study,[1]; single-dose administration,similar
same,Steady-state exposure compared with FIH study,[1]; steady state,slightly higher
same,Event-free rate at 3 months (95% CI),[2]; Kaplan-Meier,50.0 (20.85–73.61) %
same,Event-free rate at 6 months (95% CI),[2]; Kaplan-Meier,40.0 (13.52–65.73) %
same,Event-free rate at 9 months (95% CI),[2]; Kaplan-Meier,40.0 (13.52–65.73) %
same,Median PFS (95% CI),"[2]; Kaplan-Meier, NE, not estimable",4.2 (1.48–NE) months
same,PFS Events,[2]; safety population,7 (46.7) n (%)
same,PFS events: Disease progression,[2]; safety population,7 (46.7) n (%)
same,Clinical benefit rate (CR+PR+SD ≥24 weeks),[3]; [5],62.5 % (95% CI) and 62.5 (24.5‐91.5) % (95% CI)
same,Disease control rate (CR+PR+SD),[3]; [5],100 % (95% CI) and 100.0 (63.1‐100) % (95% CI)
same,Objective response rate (CR+PR),[3]; [5],25.0 (3.2‐65.1) % (95% CI)
same,Best overall response: Complete response,[3]; [6],0 n (%)
same,Best overall response: Progressive disease,[3]; [6],0 n (%)
same,Event-free rate at 3 months (95% CI),"[3]; HGOC (n=9), Kaplan-Meier",85.7 (33.41–97.86) %
same,Event-free rate at 6 months (95% CI),"[3]; HGOC (n=9), Kaplan-Meier",68.6 (21.28–91.21) %
same,Event-free rate at 9 months (95% CI),"[3]; HGOC (n=9), Kaplan-Meier",68.6 (21.28–91.21) %
same,Median PFS (95% CI),"[3]; HGOC (n=9), Kaplan-Meier, NE, not estimable",NE (2.86–NE)
same,PFS Events,"[3]; HGOC (n=9), safety population",2 (22.2) n (%)
same,"Confirmed PR, gBRCA WT patients",[3]; RECIST-evaluable HGOC (n = 8),1 n
same,"Confirmed PR, gBRCA mut patients",[3]; RECIST-evaluable HGOC (n = 8),1 n
same,Response duration at data cut-off,"[3]; one patient with HGOC, 20 mg dose level, PR, treatment ongoing",27.7 months
same,CA-125 response rate,"[4]; HGOC (n=8), CA-125-evaluable population",2 (25.0) n (%)
same,"Time to response (per CA-125 criteria), Median (range)","[4]; HGOC, n 2 responders",1.45 (1.4–1.5) months

# From PMC7826463, “Pamiparib dose escalation in Chinese patients with non‐mucinous high‐grade ovarian cancer or advanced triple‐negative breast cancer” (Cancer Medicine, 2020)
